Test results: patent publication US20240270762A1, “PENICILLIN-BINDING PROTEIN INHIBITORS” (priority 2021, published 2024)
In brackets after ≈: the same amount, converted by molar mass.

Assays:
A. baumannii CDC-0045 = assay: microbe, parasite or virus in culture; assay type: cell-based; settings: Acinetobacter baumannii, CDC0045, read-out: MIC, A. baumannii CDC-0045
A. baumannii CDC-0036 = assay: microbe, parasite or virus in culture; assay type: cell-based; settings: Acinetobacter baumannii, CDC0036, read-out: MIC, A. baumannii CDC-0036
A. baumannii ATCC 19606 = assay: microbe, parasite or virus in culture; assay type: cell-based; settings: Acinetobacter baumannii, ATCC19606, read-out: MIC, A. baumannii ATCC 19606
A. baumannii CDC-0033 = assay: microbe, parasite or virus in culture; assay type: cell-based; settings: Acinetobacter baumannii, CDC0033, read-out: MIC, A. baumannii CDC-0033
P. aeruginosa CDC-0095 = assay: microbe, parasite or virus in culture; assay type: cell-based; settings: Pseudomonas aeruginosa, CDC0095, read-out: Minimum inhibitory concentration, P. aeruginosa CDC-0095
A. baumannii PBP2 = A. baumannii PBP2 (Acinetobacter baumannii, UniProt D0C8Z9); assay: Bocillin-FL competition binding via gel filtration, A. baumannii PBP2
A. baumannii PBP2, sequence (D0C8Z9 whole entry): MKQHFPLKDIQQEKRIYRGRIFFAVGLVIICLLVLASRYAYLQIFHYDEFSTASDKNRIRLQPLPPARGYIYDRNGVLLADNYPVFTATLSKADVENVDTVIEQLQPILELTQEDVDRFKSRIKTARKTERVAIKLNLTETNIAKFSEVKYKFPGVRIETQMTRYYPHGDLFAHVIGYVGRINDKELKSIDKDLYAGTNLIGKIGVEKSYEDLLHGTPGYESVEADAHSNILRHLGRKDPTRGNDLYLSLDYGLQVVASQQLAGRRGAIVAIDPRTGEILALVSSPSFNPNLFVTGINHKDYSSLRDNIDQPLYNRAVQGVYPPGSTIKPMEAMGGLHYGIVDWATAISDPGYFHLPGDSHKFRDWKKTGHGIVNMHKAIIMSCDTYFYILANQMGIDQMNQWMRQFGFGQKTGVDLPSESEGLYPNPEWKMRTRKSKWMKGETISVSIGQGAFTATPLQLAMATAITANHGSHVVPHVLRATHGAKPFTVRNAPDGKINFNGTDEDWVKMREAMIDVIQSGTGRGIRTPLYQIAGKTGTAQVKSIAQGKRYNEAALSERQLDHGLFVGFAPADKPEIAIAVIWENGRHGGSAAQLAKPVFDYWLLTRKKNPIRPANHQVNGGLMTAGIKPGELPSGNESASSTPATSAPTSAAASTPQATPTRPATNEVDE
How it was run: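 Enzyme was pre-incubated with rising inhibitor concentrations, then Bocillin-FL was added and incubated 15 minutes more. Bound probe was separated by gel filtration and fluorescence read. EC50 came from fitting fraction of PBP labelled versus inhibitor concentration to a Hill equation with ymin, ymax and n.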

P. aeruginosa CDC-0090 = assay: microbe, parasite or virus in culture; assay type: cell-based; settings: Pseudomonas aeruginosa, CDC0090, read-out: Minimum inhibitory concentration, P. aeruginosa CDC-0090
P. aeruginosa ATCC 35151 = assay: microbe, parasite or virus in culture; assay type: cell-based; settings: Pseudomonas aeruginosa, ATCC35151, read-out: Minimum inhibitory concentration, P. aeruginosa ATCC 35151
[1] = molecular target: T1, PBP3 from Escherichia coli (K-12) (Escherichia coli, UniProt P0AD68); assay: Bocillin-FL fluorescence polarization competition binding, E. coli PBP3
T1 construct: made in house
T1 sequence (P0AD68 1-577): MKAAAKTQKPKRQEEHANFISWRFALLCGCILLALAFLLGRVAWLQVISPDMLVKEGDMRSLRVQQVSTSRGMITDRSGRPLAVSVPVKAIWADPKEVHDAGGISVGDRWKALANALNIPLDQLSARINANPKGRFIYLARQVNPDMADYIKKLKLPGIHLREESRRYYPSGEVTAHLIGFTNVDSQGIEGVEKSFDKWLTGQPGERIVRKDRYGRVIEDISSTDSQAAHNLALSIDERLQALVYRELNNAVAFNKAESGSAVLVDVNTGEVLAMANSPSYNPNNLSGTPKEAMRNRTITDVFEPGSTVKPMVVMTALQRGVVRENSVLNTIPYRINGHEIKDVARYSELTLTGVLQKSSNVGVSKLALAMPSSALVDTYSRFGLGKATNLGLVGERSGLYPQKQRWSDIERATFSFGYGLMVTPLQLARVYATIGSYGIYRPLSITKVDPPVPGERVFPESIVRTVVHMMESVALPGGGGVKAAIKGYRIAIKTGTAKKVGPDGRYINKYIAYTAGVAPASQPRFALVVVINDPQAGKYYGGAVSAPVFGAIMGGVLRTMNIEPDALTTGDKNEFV
How it was run: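 Purified PBPs pre-incubated with inhibitor (E. coli PBP3 1.5 μM, 30 min; P. aeruginosa PBP3 0.75 μM, A. baumannii PBP1a 1 μM and PBP3 0.2 μM, 15 min), then Bocillin-FL 0.1 μM (0.05 μM for PBP1a) added; FP read up to 60 min. EC50 = concentration halving bound Bocillin-FL.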

[2] = tested on: P. aeruginosa (ΔmexAB-oprM); assay: Broth microdilution MIC in iron-depleted CAMHB (IDM); assay type: cell-based; settings: Pseudomonas aeruginosa; iron-depleted CAMHB (IDM); […]; read-out: Minimum inhibitory concentration, P. aeruginosa ΔmexAB-oprM
A. baumannii ATCC 17978 = assay: microbe, parasite or virus in culture; assay type: cell-based; settings: Acinetobacter baumannii, ATCC17978, read-out: MIC, A. baumannii ATCC 17978
[3] = tested on: B. humptydooensis ATCC BAA-2767; assay: microbe, parasite or virus in culture; assay type: cell-based; settings: Burkholderia humptydooensis, ATCCBAA2767, read-out: Minimum inhibitory concentration (MIC), B. humptydooensis ATCC BAA-2767

SMILES | MIC (A. baumannii CDC-0045) | MIC (A. baumannii CDC-0036) | MIC (A. baumannii ATCC 19606) | MIC (A. baumannii CDC-0033) | MIC (P. aeruginosa CDC-0095) | EC50 (A. baumannii PBP2) | MIC (P. aeruginosa CDC-0090) | MIC (P. aeruginosa ATCC 35151) | EC50 [1] | MIC [2] | MIC (A. baumannii ATCC 17978) | MIC [3]
O=C(NCCCN1CCN(C(=O)NC(C(=O)N[C@H]2Cc3ccc(F)c(C(=O)O)c3OB2O)c2cc(F)c(O)c(O)c2Cl)C(=O)C1=O)c1ccc(O)cc1O (stereo partly drawn) [Example 307, (3R)-3-(2-(2-chloro-5-fluoro-3,4-dihydroxyphenyl)-2-(4-(3-(2,4-dihydroxybenzamido)propyl)-2,3-dioxopiperazine-1-carboxamido)acetamido)-7-fluoro-2-hydroxy-3,4-dihydro-2H-benzo[e][1,2]oxaborinine-8-carboxylic acid] | < 1 µg/mL | 2 to 4 µg/mL (≈ 2.58 to 5.16 µM) | < 1 µg/mL | 2 to 4 µg/mL (≈ 2.58 to 5.16 µM) | < 1 µg/mL | < 10 µM | < 1 µg/mL | < 1 µg/mL | < 10 µM | < 1 µg/mL | < 1 µg/mL | 8 to 16 µg/mL (≈ 10.3 to 20.6 µM)
O=C(O)c1c(F)ccc2c1OB(O)[C@@H](NC(=O)C(NC(=O)N1CCN(C3CCN(C(=O)c4c(F)ccc(O)c4F)CC3)C(=O)C1=O)c1cc(F)c(O)c(O)c1Cl)C2 (stereo partly drawn) [Example 308, (3R)-3-(2-(2-chloro-5-fluoro-3,4-dihydroxyphenyl)-2-(4-(1-(2,6-difluoro-3-hydroxybenzoyl)piperidin-4-yl)-2,3-dioxopiperazine-1-carboxamido)acetamido)-7-fluoro-2-hydroxy-3,4-dihydro-2H-benzo[e][1,2]oxaborinine-8-carboxylic acid] | < 1 µg/mL | 2 to 4 µg/mL (≈ 2.43 to 4.87 µM) | < 1 µg/mL | 2 to 4 µg/mL (≈ 2.43 to 4.87 µM) | 2 to 4 µg/mL (≈ 2.43 to 4.87 µM) | < 10 µM | 2 to 4 µg/mL (≈ 2.43 to 4.87 µM) | < 1 µg/mL | < 10 µM | < 1 µg/mL | < 1 µg/mL | 2 to 4 µg/mL (≈ 2.43 to 4.87 µM)
O=C(O)c1c(F)ccc2c1OB(O)[C@@H](NC(=O)C(NC(=O)N1CCN(C3CCN(C(=O)c4cc(O)cc(O)c4)CC3)C(=O)C1=O)c1cc(F)c(O)c(O)c1Cl)C2 (stereo partly drawn) [Example 309, (3R)-3-(2-(2-chloro-5-fluoro-3,4-dihydroxyphenyl)-2-(4-(1-(3,5-dihydroxybenzoyl)piperidin-4-yl)-2,3-dioxopiperazine-1-carboxamido)acetamido)-7-fluoro-2-hydroxy-3,4-dihydro-2H-benzo[e][1,2]oxaborinine-8-carboxylic acid] | < 1 µg/mL | < 1 µg/mL | < 1 µg/mL | 2 to 4 µg/mL (≈ 2.49 to 4.99 µM) | 2 to 4 µg/mL (≈ 2.49 to 4.99 µM) | < 10 µM | 2 to 4 µg/mL (≈ 2.49 to 4.99 µM) | < 1 µg/mL | < 10 µM | < 1 µg/mL | < 1 µg/mL | < 1 µg/mL
CN(CCCN1CCN(C(=O)NC(C(=O)N[C@H]2Cc3ccc(F)c(C(=O)O)c3OB2O)c2cc(F)c(O)c(O)c2Cl)C(=O)C1=O)C(=O)c1cccc(O)c1 (stereo partly drawn) [Example 310, (3R)-3-(2-(2-chloro-5-fluoro-3,4-dihydroxyphenyl)-2-(4-(3-(3-hydroxy-N-methylbenzamido)propyl)-2,3-dioxopiperazine-1-carboxamido)acetamido)-7-fluoro-2-hydroxy-3,4-dihydro-2H-benzo[e][1,2]oxaborinine-8-carboxylic acid] | < 1 µg/mL | 2 to 4 µg/mL (≈ 2.58 to 5.17 µM) | < 1 µg/mL | 2 to 4 µg/mL (≈ 2.58 to 5.17 µM) | 2 to 4 µg/mL (≈ 2.58 to 5.17 µM) | 10 to 50 µM | 2 to 4 µg/mL (≈ 2.58 to 5.17 µM) | < 1 µg/mL | < 10 µM | < 1 µg/mL | < 1 µg/mL | < 1 µg/mL
O=C(NCCCN1CCN(C(=O)NC(C(=O)N[C@H]2Cc3ccc(F)c(C(=O)O)c3OB2O)c2cc(F)c(O)c(O)c2Cl)C(=O)C1=O)c1ccncc1F (stereo partly drawn) [Example 400, (3R)-3-(2-(2-chloro-5-fluoro-3,4-dihydroxyphenyl)-2-(4-(3-(3-fluoroisonicotinamido)propyl)-2,3-dioxopiperazine-1-carboxamido)acetamido)-7-fluoro-2-hydroxy-3,4-dihydro-2H-benzo[e][1,2]oxaborinine-8-carboxylic acid] | < 1 µg/mL | 2 to 4 µg/mL (≈ 2.62 to 5.24 µM) | < 1 µg/mL | 2 to 4 µg/mL (≈ 2.62 to 5.24 µM) | 2 to 4 µg/mL (≈ 2.62 to 5.24 µM) | 10 to 50 µM | 2 to 4 µg/mL (≈ 2.62 to 5.24 µM) | < 1 µg/mL | < 10 µM | < 1 µg/mL | < 1 µg/mL | 2 to 4 µg/mL (≈ 2.62 to 5.24 µM)
O=C(NCCCN1CCN(C(=O)NC(C(=O)N[C@H]2Cc3ccc(F)c(C(=O)O)c3OB2O)c2cc(F)c(O)c(O)c2Cl)C(=O)C1=O)c1c(F)cncc1F (stereo partly drawn) [Example 402, (3R)-3-(2-(2-chloro-5-fluoro-3,4-dihydroxyphenyl)-2-(4-(3-(3,5-difluoroisonicotinamido)propyl)-2,3-dioxopiperazine-1-carboxamido)acetamido)-7-fluoro-2-hydroxy-3,4-dihydro-2H-benzo[e][1,2]oxaborinine-8-carboxylic acid] | < 1 µg/mL | 2 to 4 µg/mL (≈ 2.56 to 5.12 µM) | < 1 µg/mL | 2 to 4 µg/mL (≈ 2.56 to 5.12 µM) | < 1 µg/mL | 10 to 50 µM | < 1 µg/mL | < 1 µg/mL | < 10 µM | < 1 µg/mL | < 1 µg/mL | 2 to 4 µg/mL (≈ 2.56 to 5.12 µM)
O=C(NCCCN1CCN(C(=O)NC(C(=O)N[C@H]2Cc3ccc(F)c(C(=O)O)c3OB2O)c2cc(F)c(O)c(O)c2Cl)C(=O)C1=O)c1c(F)cncc1Cl (stereo partly drawn) [Example 403, (3R)-3-(2-(2-chloro-5-fluoro-3,4-dihydroxyphenyl)-2-(4-(3-(3-chloro-5-fluoroisonicotinamido)propyl)-2,3-dioxopiperazine-1-carboxamido)acetamido)-7-fluoro-2-hydroxy-3,4-dihydro-2H-benzo[e][1,2]oxaborinine-8-carboxylic acid] | < 1 µg/mL | 2 to 4 µg/mL (≈ 2.51 to 5.02 µM) | < 1 µg/mL | 2 to 4 µg/mL (≈ 2.51 to 5.02 µM) | 2 to 4 µg/mL (≈ 2.51 to 5.02 µM) | 10 to 50 µM | 2 to 4 µg/mL (≈ 2.51 to 5.02 µM) | < 1 µg/mL | < 10 µM | < 1 µg/mL | < 1 µg/mL | 2 to 4 µg/mL (≈ 2.51 to 5.02 µM)
O=C(NCCCN1CCN(C(=O)NC(C(=O)N[C@H]2Cc3ccc(F)c(C(=O)O)c3OB2O)c2cc(F)c(O)c(O)c2Cl)C(=O)C1=O)c1cc(F)c(F)c(O)c1F (stereo partly drawn) [Example 404, (3R)-3-(2-(2-chloro-5-fluoro-3,4-dihydroxyphenyl)-2-(2,3-dioxo-4-(3-(2,4,5-trifluoro-3-hydroxybenzamido)propyl)piperazine-1-carboxamido)acetamido)-7-fluoro-2-hydroxy-3,4-dihydro-2H-benzo[e][1,2]oxaborinine-8-carboxylic acid] | < 1 µg/mL | 2 to 4 µg/mL (≈ 2.46 to 4.91 µM) | < 1 µg/mL | 2 to 4 µg/mL (≈ 2.46 to 4.91 µM) | 2 to 4 µg/mL (≈ 2.46 to 4.91 µM) | < 10 µM | 2 to 4 µg/mL (≈ 2.46 to 4.91 µM) | < 1 µg/mL | < 10 µM | < 1 µg/mL | < 1 µg/mL | > 128 µg/mL
O=C(NCCCN1CCN(C(=O)NC(C(=O)N[C@H]2Cc3ccc(F)c(C(=O)O)c3OB2O)c2cc(F)c(O)c(O)c2Cl)C(=O)C1=O)c1cccc(O)c1F (stereo partly drawn) [Example 406, (3R)-3-(2-(2-chloro-5-fluoro-3,4-dihydroxyphenyl)-2-(4.-(3-(2-fluoro-3-hydroxybenzamido)propyl)-2,3-dioxopiperazine-1-carboxamido)acetamido)-7-fluoro-2-hydroxy-3,4-dihydro-2H-benzo[e][1,2]oxaborinine-8-carboxylic acid] | < 1 µg/mL | 2 to 4 µg/mL (≈ 2.57 to 5.14 µM) | < 1 µg/mL | 2 to 4 µg/mL (≈ 2.57 to 5.14 µM) | < 1 µg/mL | 10 to 50 µM | < 1 µg/mL | < 1 µg/mL | < 10 µM | < 1 µg/mL | < 1 µg/mL | 8 to 16 µg/mL (≈ 10.3 to 20.6 µM)
O=C(NCCCN1CCN(C(=O)NC(C(=O)N[C@H]2Cc3ccc(F)c(C(=O)O)c3OB2O)c2cc(F)c(O)c(O)c2Cl)C(=O)C1=O)c1cc(O)ccc1F (stereo partly drawn) [Example 407, (3R)-3-(2-(2-chloro-5-fluoro-3,4-dihydroxyphenyl)-2-(4-(3-(2-fluoro-5-hydroxybenzamido)propyl)-2,3-dioxopiperazine-1-carboxamido)acetamido)-7-fluoro-2-hydroxy-3,4-dihydro-2H-benzo[e][1,2]oxaborinine-8-carboxylic acid] | < 1 µg/mL | 2 to 4 µg/mL (≈ 2.57 to 5.14 µM) | < 1 µg/mL | 2 to 4 µg/mL (≈ 2.57 to 5.14 µM) | 2 to 4 µg/mL (≈ 2.57 to 5.14 µM) | 10 to 50 µM | < 1 µg/mL | < 1 µg/mL | < 10 µM | < 1 µg/mL | < 1 µg/mL | 8 to 16 µg/mL (≈ 10.3 to 20.6 µM)
